The text below walks through data of US6613761B1, “Benzoxazepine compounds, their production and use” (Takeda Chemical Industries, Ltd., priority 1995, dated 2003).

pIC50: −log10 of the molar value.

In series [1] the test system is Cholesterol biosynthesis in the liver. Kind of series: Assay of cholesterogenesis in the liver. The conditions noted are these: Wistar fatty rats, liver total sterol radioactivity from 14C sodium acetate. It counts as in vivo. As to the method: Cholesterol biosynthesis in the liver of a rat was assayed as follows. Six-week old Wistar fatty rats were given orally a test compound [Compound 4-2 (suspended in a 0.5% methyl cellulose solution)], while the control group was orally given only a 0.5% methyl cellulose solution. One hour later, sodium acetate labelled with radioisotope ^14C (manufactured by Amasham) was given intravenously at the tail (10 μCi/0.3 ml physiological saline/rat). One hour layer, rats were sacrificed by decapitation, and 1.5 g of the first lobe of the liver was removed, which was saponified by immersing in 3.9 ml of an alkaline ethanol solution (KOH:EtOH=1:2) at 100° C. for two hours, followed by extraction with 5 ml each portion of petroleum ether three times. The extract solution was dried, which was dissolved in 3 ml of ethanol:acetone (1:1). To the solution was added 2 ml of a 0.5% digitonin-ethanol solution. The mixture was left standing for one hour. Resulting precipitates were collected as total sterol, and the radioactivity was measured by means of a liquid scintillation counter.

The target in series [2] is T1, squalene synthetase (Homo sapiens, UniProt P37268).
T1 construct: This suspension was used as the enzyme solution; endogenous in cells; host or cells: HepG2 human hepatic carcinoma cells; membrane fraction (105000×g sediment) of the sonicate
T1 sequence (P37268 1-417): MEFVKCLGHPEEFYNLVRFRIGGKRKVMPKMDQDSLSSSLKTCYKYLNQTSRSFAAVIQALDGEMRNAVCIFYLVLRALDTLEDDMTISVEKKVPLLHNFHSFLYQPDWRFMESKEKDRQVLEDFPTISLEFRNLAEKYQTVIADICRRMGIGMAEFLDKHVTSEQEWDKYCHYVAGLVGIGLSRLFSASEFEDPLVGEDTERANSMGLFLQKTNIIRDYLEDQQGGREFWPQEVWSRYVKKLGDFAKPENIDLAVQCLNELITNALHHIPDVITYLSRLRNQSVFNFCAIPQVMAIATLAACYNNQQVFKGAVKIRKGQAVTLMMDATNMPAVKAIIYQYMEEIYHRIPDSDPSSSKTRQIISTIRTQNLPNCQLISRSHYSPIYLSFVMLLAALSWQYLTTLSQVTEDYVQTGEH
Nature of the series: Squalene synthetase inhibitory activity (human-derived enzyme prepared from HepG2 cells). It counts as biochemical. The conditions noted are these: [1-3H] farnesyl pyrophosphate, 37° C., 45 minutes, read-out: Inhibitory Activity (IC50, 10^−9 M). How it is done:
The squalene synthetase inhibitory activity was assayed as follows with the enzyme solutions prepared in accordance with the method described below.
More specifically, an enzyme solution (protein content 0.8 μg) prepared in accordance with the method described below was added to a solution (total volume 50 μl)) containing 5 μM [1-^3H] farnesyl pyrophosphate (specific activity 25 μCi/mole), 1 mM NADPH (nicotinamide adenine dinucleotide phosphate of reduced type), 5 mM MgCl2, 6 mM glutathione, a 100 mM buffer solution of potassium phosphate (pH 7.4) and a test drug (used as an aqueous solution or a DMSO solution), then the reaction was allowed to proceed at 37° C. for 45 minutes. To the reaction mixture was added 150 μl of a mixture of chloroform and methanol (1:2) to suspend the reaction, followed by adding 50 Al of chloroform and 50 μl of a 3N solution of sodium hydroxide. 50 μl of the chloroform layer (lower layer) containing the reaction mixture having squalene as the principal component and 3 ml of toluene-based liquid scintillator were mixed, and its radioactivity was determined by means of a liquid scintillation counter.
The squalene synthetase inhibitory activity was expressed in terms of the concentration inhibiting by 50% the radioactivity taken into the chloroform layer (IC50, molar concentration (M)), as shown in Table 7. Preparation of human-derived enzyme
Human hepatic carcinoma cells HepG2 (about 1×10^9 cells) obtained by incubation on a Dulbecco-modified Eagle's medium (37° C. in the presence of 5% CO2) containing 10% fetal bovine serum were suspended in 10 ml of an ice-cooled buffer solution (100 mM potassium phosphate buffer (pH 7.4), 30 mM nicotinamide and 2.5 mM MgCl2]. The cells were crashed by means of ultrasonication (for 30 seconds, twice). The sonicate thus obtained was subjected to centrifugation for 20 minutes (4° C.) with 10000×g. The supernatant layer was subjected to further centrifugation for 90 minutes (4° C.) with 105000×g. The sediment was then suspended in an ice-cooled 100 mM potassium phosphate buffer (pH 7.4), which was again subjected to centrifugation for 90 minutes (4° C.) with 105000×g. This fraction was suspended in an ice-cooled 100 mM potassium phosphate buffer solution (pH 7.4) (about 4 mg/ml protein concentration). This suspension was used as the enzyme solution.

A word on the melting point: it is the temperature of the solid-liquid transition. By pIC50 is commonly meant the IC50 on a negative log10 scale, so that one unit is a factor of ten. As for `COc1cccc([C@H]2O[C@H](CC(=O)N3CCC(CC(=O)O)CC3)C(=O)N(CC(C)(C)C)c3ccc(Cl)cc32)c1OC` [Compound 4-2, N-[(3R,5S)-7-chloro-5-(2,3-dimethoxyphenyl)-1-neopentyl-2-oxo-1,2,3,5-tetrahydro-4,1-benzoxazepine-3-acetyl]piperidine-4-acetic acid], the melting point fell in the range of 137 to 140 °C. In addition, in series [1] (0.6 mg/kg given orally), the “Cholesterogenesis inhibitory rate (%)” value turned out to be 80.1%. Also, the “Cholesterogenesis inhibitory rate (%)” value in series [1] (2.0 mg/kg given orally) is on record as 90.4%. The pIC50 in series [2] was 7.66.

Consider `COc1cccc([C@H]2O[C@H](CC(=O)NS(C)(=O)=O)C(=O)N(CC(C)(C)CO)c3ccc(Cl)cc32)c1OC` [Compound 19, (3R,5S)-N-methylsulfonyl-7-chloro-5-(2,3-dimethoxyphenyl)-1-(3-hydroxy-2,2-dimethylpropyl)-2-oxo-1,2,3,5-tetrahydro-4,1-benzoxazepine-3-acetamide], for which the melting point was 221 to 223 °C. Moreover, the negative-log IC50 (pIC50) in series [2] was 7.49.

In the case of `COc1cccc([C@H]2O[C@H](CC(=O)N3CCC(CC(=O)NS(C)(=O)=O)CC3)C(=O)N(CC(C)(C)CO)c3ccc(Cl)cc32)c1OC` [Compound 21, N-methylsulfonyl-[N-[(3R,5S)-7-chloro-5-(2,3-dimethoxyphenyl)-1-(3-hydroxy-2,2-dimethylpropyl)-2-oxo-1,2,3,5-tetrahydro-4,1-benzoxazepine-3-acetyl]piperidine]-4-acetamide], the melting point is 175 to 180 °C. Moreover, the pIC50 in series [2] was 7.59.

Compound `COc1cccc([C@H]2O[C@H](CC(=O)NCP(=O)(O)O)C(=O)N(CC(C)(C)C)c3ccc(Cl)cc32)c1OC` [Compound 22, (3R,5S)-N-phosphonomethyl-7-chloro-5-(2,3-dimethoxyphenyl)-1-neopentyl-2-oxo-1,2,3,5-tetrahydro-4,1-benzoxazepine-3-acetamide] had a melting point of 152 to 155 °C. Further, in series [2], the pIC50 is 8.07.

In turn, `COc1cccc([C@H]2O[C@H](CC(=O)N3CCC(CP(=O)(O)O)CC3)C(=O)N(CC(C)(C)C)c3ccc(Cl)cc32)c1OC` [Compound 23, N-[(3R,5S)-7-chloro-5-(2,3-dimethoxyphenyl)-1-neopentyl-2-oxo-1,2,3,5-tetrahydro-4,1-benzoxazepine-3-acetyl]-4-phosphonomethylpiperidine] showed a melting point of 174 to 175 °C. Besides, the pIC50 in series [2] was 7.92.

In turn, `COc1cccc([C@H]2O[C@H](CC(=O)N3CCC(Cc4nnn[nH]4)CC3)C(=O)N(CC(C)(C)C)c3ccc(Cl)cc32)c1OC` [Compound 24, 5-[[N-[(3R,5S)-7-chloro-5-(2,3-dimethoxyphenyl)-1-neopentyl-2-oxo-1,2,3,5-tetrahydro-4,1-benzoxazepine-3-acetyl]piperidin-4-yl]methyl]1H(or 3H)-tetrazole] yielded a melting point of 168 to 170 °C. For the same compound, the negative logarithm of the IC50 (pIC50) in series [2] was 7.77.

For the compound `COc1cccc([C@H]2O[C@H](CC(=O)N3CCC(CCc4nnn[nH]4)CC3)C(=O)N(CC(C)(C)C)c3ccc(Cl)cc32)c1OC` [Compound 25, 5-[2-[N-[(3R,5S)-7-chloro-5-(2,3-dimethoxyphenyl)-1-neopentyl-2-oxo-1,2,3,5-tetrahydro-4,1-benzoxazepine-3-acetyl]piperidin-4-yl]ethyl]1H(or 3H)-tetrazole], the melting point lay in the range of 155 to 158 °C. Further, in series [2], the pIC50 is 7.54.
